Converted amounts (≈) assume the structure as drawn. Read-outs that look alike come from different tables or passages of the source. Residues, ends and D or L forms follow the SMILES beside them. No end group written: not given here. *: point of attachment. Fmoc = O=C(OCC1c2ccccc2-c2ccccc21)*
Tests used:
E. faecium = format: cell-based
Protocol: (§1) Minimal inhibitory concentration (MIC) assays were performed following a standard broth dilution procedure ([Wiegand et al., 2008]) in which bacteria were grown in MHB and fungal in SB overnight. The overnight bacterial suspension was adjusted to 10^6 CFU/ml in broth according to MacFarlane standard. Bacterial solutions were mixed in 96-well plates with the peptide solution to reach final concentrations of peptides ranging from 1,082 to 2 μM, including inhibition control (Indolicidin), growth control, and sterility control. Within each MIC experiment, each peptide was tested in triplicate across this concentration range and repeated on 3 independent days. Media and glassware were sterilized at 120°C for 1 h with an autoclave prior to all bioassays.

[1] = format: physicochemical
Protocol: (§2) The peptides were prepared by mixing the lyophilized peptide directly with type 1 water, vortexed for a few seconds to obtain an isotropic solution and stored at 4°C–5°C in between experiments.

E. faecalis ATCC 19433 = format: cell-based
From the text: (§3) Indolicidin (sequence: ILPWKWPWWPWRR-NH2, molecular weight: 1,906.3 g/mol) and FMOC-WWRR-NH2 (molecular weight: 924.1) were obtained from ChemPep (USA) as lyophilized powder and acetate salts with a purity >95%. Ethanol and Congo red were purchased from Sigma-Aldrich (Australia). Sodium chloride was purchased from Alfa Aesar (United Kingdom). The negative staining agent phosphotungstic acid was purchased from Proscitech (Australia). A Milipore filter system was utilized to obtain Milli-Q water. BD Difco Mueller Hinton Broth (MHB) and Sabouraud broth (SB) were purchased from Cell biosciences (Australia). Strains: E. coli NCTC 10418, P. aeruginosa ATCC 9721, E. faecalis ATCC 19433, S. aureus ATCC 25923, S. aureus ATCC BAA-1756 (methicillin resistant), Streptococcus pneumoniae ATCC 49619, Candida albicans ATCC 10231 and Candida auris DSM 21092 (Fluconazole resistant) were provided by the RMIT microbial culture collection. Bacterial strains were stored in 50% glycerol at −20 and −80°C.
as §1

[2] = test system: S. aureus ATCC BAA-1756 (methicillin resistant); format: cell-based
From the text: as §3, §1

[3] = test system: Streptococcus pneumoniae ATCC 49619; format: cell-based
From the text: as §3, §1

P. aeruginosa ATCC 9721 = format: cell-based
From the text: as §3, §1

[4] = test system: Candida auris DSM 21092 (Fluconazole resistant); format: cell-based
From the text: as §3, §1

S. aureus ATCC 25923 = format: cell-based; conditions: ATCC 25923, 1 h
From the text: as §3, §1

E. coli NCTC 10418 = format: cell-based
From the text: as §3, §1

[5] = test system: Candida albicans ATCC 10231; format: cell-based
From the text: as §3, §1

[6] = Self-assembly and hydrogelation in water (electron microscopy, rheology, observation); format: physicochemical
Protocol: as §2
Carbon-coated grids (EMSCF200H-CU-TH, ProSciTech) were glow discharged to render them hydrophilic. A 1–5 μl aliquot of sample was applied to an upturned grid held in anti-capillary forceps, over moist filter paper, and left for 5 min over moistened filter paper to adsorb. Excess liquid was then removed with filter paper, the grid was then inverted onto a drop of 2% PTA stain, pH 6.9 on Parafilm, for 1 min. […] Images were recorded using a FEI Eagle 4 k × 4 k CCD camera and AnalySIS v3.2 camera control software (Olympus).
A laboratory-built humidity-controlled vitrification system was used to prepare the samples for Cryo-TEM. […] Images were recorded using a FEI Eagle 4 k × 4 k CCD camera at a range of magnifications using AnalySIS v3.2 camera control software (Olympus).
Rheology was undertaken on a calibrated rheometer (Anton Paar MCR 301, Anton Paar Pty. Ltd. Austria) fitted with a 15 mm cone plate fixture with a cone angle of 1° (CP15-1, Anton Paar Pty. Ltd. Austria). […] All measurements were carried out in triplicate with the mean and standard deviation shown, calculated and plotted in GraphPad Prism.

[7] = test system: S. aureus Methicillin resistant; experiment: Fluorescence assisted cell sorting (FACS) live/dead assay; format: cell-based; conditions: overnight 36-37°C, SYTO 9/propidium iodide
Protocol: (§4) FACS assay was performed following the LIVE/DEAD™ BacLight™ Bacterial Viability Kit (L7012) instructions and stablished procedures ([Berney et al., 2007]; [Robertson et al., 2019]), in which bacteria were grown in Mueller Hinton Broth and fungal in Sabouraud Broth overnight to a late–log phase. Then, 900 μl of the cell suspension was added to 100 μl of five different concentrations of peptides solution and incubated overnight at 36°C–37°C. On the next day, the suspension was centrifuged at 10,000 × g for 10 min and the supernatant fraction was removed from the samples. The pellets were resuspended with 1 ml of PBS buffer and incubated at room temperature for 1 h, mixing every 15 min. The sample was centrifuged at 10,000 × g for 10 min, the supernatant removed followed by the resuspension of the pellet in 1 ml of PBS. The washing steps were repeated twice. To perform the staining of the cells, equal volumes of SYTO® 9 and propidium iodide were combined in a microfuge tube and 3 µl of the dye mixture was added to each microbial suspension. The sample was incubated at room temperature in the dark for 15 min. The evaluation of cell viability was performed through the calculation of the red to green fluorescence ratio to determine the proportion of live cells in a sample.

E. coli = experiment: as above; format: cell-based; conditions: overnight 36-37°C, SYTO 9/propidium iodide
Protocol: as §4

[8] = test system: C. auris Fluconazole resistant; experiment: as above; format: cell-based; conditions: overnight 36-37°C, SYTO 9/propidium iodide
Protocol: as §4

[9] = Peptide assembly state from ATR-FTIR arginine side-chain vibrations; format: physicochemical; conditions: ATR-FTIR 25°C
Protocol: as §2
Data was recorded at 25°C using a Tensor-II spectrometer (Bruker, Germany) equipped with a Bio-ATR attachment (Bruker, Germany) by directly depositing the samples on the ATR crystal as previous reported by our group ([Dharmadana et al., 2019]). Spectra were collected over 32 scans within 4,000–400 cm^−1 wavenumber range at a resolution of 4 cm^−1. Associated water signal was subtracted from the resulting spectra, and secondary derivatives were calculated using OPUS software (Bruker, Germany).

[10] = broth dilution in MHB, 10^6 CFU/ml, peptide 1,082 to 2 μM, triplicate on 3 independent days
[11] = broth dilution in Sabouraud broth, peptide 1,082 to 2 μM, triplicate on 3 independent days

N=C(N)NCCC[C@H](NC(=O)[C@H](CCCNC(=N)N)NC(=O)[C@H](Cc1c[nH]c2ccccc12)NC(=O)[C@H](Cc1c[nH]c2ccccc12)NC(=O)OCC1c2ccccc2-c2ccccc21)C(N)=O [Priscilicidin, Fmoc-WWRR-NH2] (Fmoc-WWRR-NH2)
MIC E. faecium (E. faecium; 1 h): 34 µM (≈ 31.4 µg/mL) | Concentration easily solubilised in pure water [1]: at least 10 % w/w | MIC E. faecalis (E. faecalis ATCC 19433; ATCC 19433, 1 h): 68 µM (≈ 62.8 µg/mL) | MIC S. aureus Methicillin resistant ([2]; ATCC BAA-1756, 1 h): 34 µM (≈ 31.4 µg/mL) | MIC S. pneumoniae ([3]; ATCC 49619, 1 h): 17 µM (≈ 15.7 µg/mL) | MIC P. aeruginosa (P. aeruginosa ATCC 9721; ATCC 9721, 1 h): 68 µM (≈ 62.8 µg/mL) | MIC C. auris Fluconazole resistant ([4]; DSM 21092, 1 h): 17 µM (≈ 15.7 µg/mL) | MIC S. aureus (S. aureus ATCC 25923): 17 µM (≈ 15.7 µg/mL) | MIC E. coli (E. coli NCTC 10418; NCTC 10418, 1 h): 68 µM (≈ 62.8 µg/mL) | MIC C. albicans ([5]; ATCC 10231, 1 h): 8 µM (≈ 7.39 µg/mL)

WPWRR-NH2 [Indolicidin C-terminus, WPWRR-NH2, reference compound]
MIC P. aeruginosa (P. aeruginosa ATCC 9721; ATCC 9721, 1 h): 313 µM | MIC C. auris Fluconazole resistant ([4]; DSM 21092, 1 h): 313 µM | MIC E. coli (E. coli NCTC 10418; NCTC 10418, 1 h): 313 µM | MIC C. albicans ([5]; ATCC 10231, 1 h): 78 µM

N=C(N)NCCC[C@H](NC(=O)[C@H](CCCNC(=N)N)NC(=O)[C@H](Cc1c[nH]c2ccccc12)NC(=O)[C@@H]1CCCN1C(=O)[C@H](Cc1c[nH]c2ccccc12)NC(=O)OCC1c2ccccc2-c2ccccc21)C(N)=O [P-Priscilicidin, Fmoc-WPWRR-NH2] (Fmoc-WPWRR-NH2)
MIC E. faecium (E. faecium; 1 h): 61 µM (≈ 62.3 µg/mL) | Nanostructures imaged by electron microscopy ([6]; 10% wt in water, 1 month incubation, in coexistence with globular oligomers): nanoribbons | State of aqueous samples (rheology summary) ([6]; peptide in water, oscillatory rheology G'/G''): colloidal solutions of low viscosity | Dead % ([7]; 12 µM peptide): 5% | Live % ([7]; 12 µM peptide): 95% | Dead % ([7]; 24 µM peptide): 7% | Live % ([7]; 24 µM peptide): 95% | Dead % ([7]; 98 µM peptide): 83% | Live % ([7]; 98 µM peptide): 19% | Dead % ([7]; 196 µM peptide): 97% | Live % ([7]; 196 µM peptide): 4% | FACS minimum concentration showing over 90% dead microbes, S. aureus Methicillin resistant [7]: 196 µM | Dead % (E. coli; 12 µM peptide): 2% | Live % (E. coli; 12 µM peptide): 93% | Dead % (E. coli; 24 µM peptide): 33% | Live % (E. coli; 24 µM peptide): 57% | Dead % (E. coli; 49 µM peptide): 48% | Live % (E. coli; 49 µM peptide): 33% | Dead % (E. coli; 98 µM peptide): 44% | Live % (E. coli; 98 µM peptide): 35% | Dead % (E. coli; 196 µM peptide): 89% | Live % (E. coli; 196 µM peptide): 2% | FACS minimum concentration showing over 90% dead microbes, E. coli (E. coli): 196 µM | Dead % ([8]; 12 µM peptide): 33% | Live % ([8]; 12 µM peptide): 67% | Dead % ([8]; 24 µM peptide): 95% | Live % ([8]; 24 µM peptide): 4% | Dead % ([8]; 49 µM peptide): 98% | Live % ([8]; 49 µM peptide): 2% | Dead % ([8]; 98 µM peptide): 98% | Live % ([8]; 98 µM peptide): 1% | Dead % ([8]; 196 µM peptide): 98% | Live % ([8]; 196 µM peptide): 2% | Interpretation for peptide assembly according to MD ([9]; 1 % wt in water, 30 days after mixing): monomer/globular oligomer | Interpretation for peptide assembly according to MD ([9]; 1 % wt in water, time after mixing 0): monomer/globular oligomer | Interpretation for peptide assembly according to MD ([9]; 5 % wt in water, 30 days after mixing): monomer/globular oligomer | Interpretation for peptide assembly according to MD ([9]; 5 % wt in water, time after mixing 0): monomer/globular oligomer | Interpretation for peptide assembly according to MD ([9]; 10 % wt in water, 30 days after mixing): monomer/globular oligomer | Interpretation for peptide assembly according to MD ([9]; 10 % wt in water, time after mixing 0): monomer/globular oligomer | MIC E. faecalis (E. faecalis ATCC 19433; ATCC 19433, 1 h): 61 µM (≈ 62.3 µg/mL) | MIC S. aureus Methicillin resistant ([2]; ATCC BAA-1756, 1 h): 61 µM (≈ 62.3 µg/mL) | MIC S. pneumoniae ([3]; ATCC 49619, 1 h): 31 µM (≈ 31.7 µg/mL) | MIC P. aeruginosa (P. aeruginosa ATCC 9721; ATCC 9721, 1 h): 61 µM (≈ 62.3 µg/mL) | MIC C. auris Fluconazole resistant ([4]; DSM 21092, 1 h): 31 µM (≈ 31.7 µg/mL) | MIC S. aureus (S. aureus ATCC 25923): 31 µM (≈ 31.7 µg/mL) | MIC E. coli (E. coli NCTC 10418; NCTC 10418, 1 h): 122 µM (≈ 125 µg/mL) | MIC C. albicans ([5]; ATCC 10231, 1 h): 15 µM (≈ 15.3 µg/mL)

CC[C@H](C)[C@H](N)C(=O)N[C@@H](CC(C)C)C(=O)N1CCC[C@H]1C(=O)N[C@@H](Cc1c[nH]c2ccccc12)C(=O)N[C@@H](CCCCN)C(=O)N[C@@H](Cc1c[nH]c2ccccc12)C(=O)N1CCC[C@H]1C(=O)N[C@@H](Cc1c[nH]c2ccccc12)C(=O)N[C@@H](Cc1c[nH]c2ccccc12)C(=O)N1CCC[C@H]1C(=O)N[C@@H](Cc1c[nH]c2ccccc12)C(=O)N[C@@H](CCCNC(=N)N)C(=O)N[C@@H](CCCNC(=N)N)C(N)=O [Indolicidin, reference compound]
MIC E. faecium (E. faecium; [10]): 33 µM (≈ 62.9 µg/mL) | MIC E. faecalis (E. faecalis ATCC 19433; [10]): 33 µM (≈ 62.9 µg/mL) | MIC S. aureus Methicillin resistant ([2]; second value of cell S. aureus/Methicillin resistant, broth dilution in MHB, 10^6 CFU/ml, peptide 1,082 to 2 μM, triplicate on 3 independent days): 33 µM (≈ 62.9 µg/mL) | MIC S. pneumoniae [3, 10]: 16 µM (≈ 30.5 µg/mL) | MIC P. aeruginosa (P. aeruginosa ATCC 9721; [10]): 33 µM (≈ 62.9 µg/mL) | MIC C. auris Fluconazole resistant [4, 11]: 16 µM (≈ 30.5 µg/mL) | MIC E. coli (E. coli NCTC 10418; [10]): 16 µM (≈ 30.5 µg/mL) | MIC C. albicans [5, 11]: 4 µM (≈ 7.63 µg/mL)
